{"source": "ChEMBL document CHEMBL5505979", "about": "“Novel aminothiazoximone-corbelled ethoxycarbonylpyrimidones with antibiofilm activity to conquer Gram-negative bacteria through potential multitargeting effects” (Eur J Med Chem, 2024)", "key": {"Staphylococcus aureus": {"system": "Staphylococcus aureus", "assay": "Anti-bacterial activity against methicillin-resistant Staphylococcus aureus N315 assessed as inhibition of bacterial growth", "assay_type": "functional", "details": "Staphylococcus aureus, N315; read-out: MIC"}, "Klebsiella pneumoniae": {"system": "Klebsiella pneumoniae", "assay": "Anti-bacterial activity against Klebsiella pneumoniae KPN325 assessed as inhibition of bacterial growth", "assay_type": "functional", "details": "Klebsiella pneumoniae, KPN325; read-out: MIC"}, "Pseudomonas aeruginosa": {"system": "Pseudomonas aeruginosa", "assay": "Anti-bacterial activity against Pseudomonas aeruginosa ATCC 27853 assessed as inhibition of bacterial growth", "assay_type": "functional", "details": "Pseudomonas aeruginosa, ATCC 27853; read-out: MIC"}, "Acinetobacter baumannii [1]": {"system": "Acinetobacter baumannii", "assay": "Anti-bacterial activity against Acinetobacter baumannii R674 assessed as inhibition of bacterial growth", "assay_type": "functional"}, "Candida albicans": {"system": "Candida albicans", "assay": "Anti-fungal activity against Candida albicans assessed as inhibition of fungal growth", "assay_type": "functional", "details": "Candida albicans; read-out: MIC"}, "Acinetobacter baumannii [2]": {"system": "Acinetobacter baumannii", "assay": "Anti-bacterial activity against Acinetobacter baumannii assessed as inhibition of bacterial growth measured upto 9 hrs", "assay_type": "functional, organism-based"}, "BEAS-2B": {"system": "BEAS-2B", "assay": "Cytotoxicity against human BEAS-2B cells assessed as cell viability at 0.064 mmol/L measured after 24 hrs", "assay_type": "toxicity, cell-based", "details": "64 µM"}, "Escherichia coli [3]": {"system": "Escherichia coli", "assay": "Antibiofilm activity against Escherichia coli ATCC 25922 assessed as inhibition rate of bio-film formation at 0.5 times of MIC concentration by Crystal violet assay relative to control", "assay_type": "functional"}, "Escherichia coli [4]": {"system": "Escherichia coli", "assay": "Antibiofilm activity against Escherichia coli ATCC 25922 assessed as inhibition rate of bio-film formation at 8 times of MIC concentration by Crystal violet assay relative to control", "assay_type": "functional"}, "Escherichia coli [5]": {"system": "Escherichia coli", "assay": "Antibiofilm activity against Escherichia coli ATCC 25922 assessed as clearance rate of mature biofilm at MIC concentration relative to control", "assay_type": "functional"}, "Acinetobacter baumannii [6]": {"system": "Acinetobacter baumannii", "assay": "Antibiofilm activity against Acinetobacter baumannii assessed as clearance rate of mature biofilm at 8 times of MIC concentration relative to control", "assay_type": "functional"}, "Escherichia coli [7]": {"system": "Escherichia coli", "assay": "Antibiofilm activity against Escherichia coli ATCC 25922 assessed as reduction of self-aggregation", "assay_type": "functional, organism-based"}, "Acinetobacter baumannii [8]": {"system": "Acinetobacter baumannii", "assay": "Reduction of biofilm virulent factors in Acinetobacter baumannii assessed as decrease in hydrophobicity index", "assay_type": "functional, organism-based"}, "Escherichia coli [9]": {"system": "Escherichia coli", "assay": "Reduction of biofilm virulent factors in Escherichia coli ATCC 25922 assessed as decrease in hydrophobicity index", "assay_type": "functional, organism-based"}, "Acinetobacter baumannii [10]": {"system": "Acinetobacter baumannii", "assay": "Reduction of biofilm virulent factors in Acinetobacter baumannii assessed as decrease in extracellular polymeric substances (EPS) by measuring optical density at 490 nm at 1/4 times of MIC concentration by congo red binding assay (reference value: 0.188 to 0.192)", "assay_type": "functional"}, "Acinetobacter baumannii [11]": {"system": "Acinetobacter baumannii", "assay": "Reduction of biofilm virulent factors in Acinetobacter baumannii assessed as decrease in extracellular polymeric substances (EPS) by measuring optical density at 490 nm at 2 times of MIC concentration by congo red binding assay (reference value: 0.188 to 0.192)", "assay_type": "functional"}, "Escherichia coli [12]": {"system": "Escherichia coli", "assay": "Reduction of biofilm virulent factors in Escherichia coli ATCC 25922 assessed as decrease in extracellular polymeric substances (EPS) by measuring optical density at 490 nm at 1/4 times of MIC concentration by congo red binding assay (reference value: 0.028 to 0.031)", "assay_type": "functional"}, "Escherichia coli [13]": {"system": "Escherichia coli", "assay": "Reduction of biofilm virulent factors in Escherichia coli ATCC 25922 assessed as decrease in extracellular polymeric substances (EPS) at 1/2 times of MIC concentration by congo red binding assay relative to control", "assay_type": "functional", "set-up": "scale not given: the % may be the effect or the level left"}, "Acinetobacter baumannii [14]": {"system": "Acinetobacter baumannii", "assay": "Anti-bacterial activity against Acinetobacter baumannii assessed as growth inhibition by measuring optical density measured at 4 time of MIC in presence of 1/4 times of MIC of norfloxacin by Checkerboard assay (reference value: 0.152)", "assay_type": "functional"}, "Acinetobacter baumannii [15]": {"system": "Acinetobacter baumannii", "assay": "Anti-bacterial activity against Acinetobacter baumannii assessed as growth inhibition by measuring optical density measured at 2 time of MIC in presence of 1/8 times of MIC of norfloxacin by Checkerboard assay (reference value: 0.155)", "assay_type": "functional"}, "Acinetobacter baumannii [16]": {"system": "Acinetobacter baumannii", "assay": "Anti-bacterial activity against Acinetobacter baumannii assessed as growth inhibition by measuring optical density measured at 2 time of MIC in presence of 1/4 times of MIC of norfloxacin by Checkerboard assay (reference value: 0.155)", "assay_type": "functional"}, "Acinetobacter baumannii [17]": {"system": "Acinetobacter baumannii", "assay": "Anti-bacterial activity against Acinetobacter baumannii assessed as growth inhibition by measuring optical density measured at 1 time of MIC in presence of 1/4 times of MIC of norfloxacin by Checkerboard assay (reference value: 0.157)", "assay_type": "functional"}, "Acinetobacter baumannii [18]": {"system": "Acinetobacter baumannii", "assay": "Anti-bacterial activity against Acinetobacter baumannii assessed as growth inhibition by measuring optical density measured at 1 time of MIC in presence of 1/2 times of MIC of norfloxacin by Checkerboard assay (reference value: 0.157)", "assay_type": "functional"}, "Acinetobacter baumannii [19]": {"system": "Acinetobacter baumannii", "assay": "Anti-bacterial activity against Acinetobacter baumannii assessed as growth inhibition by measuring optical density measured at 1/2 time of MIC in presence of 1/8 times of MIC of norfloxacin by Checkerboard assay (reference value: 0.152)", "assay_type": "functional"}, "Acinetobacter baumannii [20]": {"system": "Acinetobacter baumannii", "assay": "Anti-bacterial activity against Acinetobacter baumannii assessed as growth inhibition by measuring optical density measured at 1/2 time of MIC in presence of 1 times of MIC of norfloxacin by Checkerboard assay (reference value: 0.152)", "assay_type": "functional"}, "Acinetobacter baumannii [21]": {"system": "Acinetobacter baumannii", "assay": "Anti-bacterial activity against Acinetobacter baumannii assessed as growth inhibition by measuring optical density measured at 1/2 time of MIC in presence of 2 times of MIC of norfloxacin by Checkerboard assay (reference value: 0.152)", "assay_type": "functional"}, "Acinetobacter baumannii [22]": {"system": "Acinetobacter baumannii", "assay": "Anti-bacterial activity against Acinetobacter baumannii assessed as growth inhibition by measuring optical density measured at 1/4 time of MIC in presence of 1/2 times of MIC of norfloxacin by Checkerboard assay (reference value: 0.152)", "assay_type": "functional"}, "Escherichia coli [23]": {"system": "Escherichia coli", "assay": "Anti-bacterial activity against Escherichia coli ATCC 25922 assessed as growth inhibition by measuring optical density measured at 4 time of MIC in presence of 1/2 times of MIC of norfloxacin by Checkerboard assay (reference value: 0.125)", "assay_type": "functional"}, "Escherichia coli [24]": {"system": "Escherichia coli", "assay": "Anti-bacterial activity against Escherichia coli ATCC 25922 assessed as growth inhibition by measuring optical density measured at 1 time of MIC in presence of 2 times of MIC of norfloxacin by Checkerboard assay (reference value: 0.125)", "assay_type": "functional"}, "Escherichia coli [25]": {"system": "Escherichia coli", "assay": "Anti-bacterial activity against Escherichia coli ATCC 25922 assessed as growth inhibition by measuring optical density measured at 1/2 time of MIC in presence of 1/2 times of MIC of norfloxacin by Checkerboard assay (reference value: 0.124)", "assay_type": "functional"}, "Acinetobacter baumannii [26]": {"system": "Acinetobacter baumannii", "assay": "Induction of membrane disturbance in Acinetobacter baumannii assessed as increase in fluorescence intensity at 0.5 to 8 times of MIC concentration measured after 90 mins by Propidium iodide assay", "assay_type": "functional, organism-based"}, "Escherichia coli [27]": {"system": "Escherichia coli", "assay": "Reduction in metabolic activity of Escherichia coli ATCC 25922 assessed as decrease in fluorescence intensity at 1/4 to 8 times of MIC measured after 6 hrs by resazurin sodium salt assay", "assay_type": "functional, organism-based"}, "Escherichia coli [28]": {"system": "Escherichia coli", "assay": "Anti-bacterial activity against Escherichia coli ATCC 25922 assessed as bacterial mortality at 1 to 4 MIC concentration by propidium iodide based fluorescence microscopy relative to control", "assay_type": "functional, organism-based"}, "Acinetobacter baumannii [29]": {"system": "Acinetobacter baumannii", "assay": "Induction of intracellular ROS accumulation in Acinetobacter baumannii assessed as larger green fluorescence densities at 1/4 to 2 times of MIC by microscopic imaging assay", "assay_type": "functional, organism-based"}}, "note": "The source made the active and inactive calls. The rule behind the calls is not given here."}
{"smiles": "CCCCc1nc(Cl)c(C2NC(=O)NC(CN3CCN(C(=O)/C(=N/OC)c4csc(N)n4)CC3)=C2C(=O)OCC)[nH]1", "note": "(centres undefined)", "values": [{"measurement": "MIC", "setting": "Staphylococcus aureus", "value": 26, "unit": "µM"}, {"measurement": "MIC", "setting": "Klebsiella pneumoniae", "value": 53, "unit": "µM"}, {"measurement": "MIC", "setting": "Pseudomonas aeruginosa", "value": 26, "unit": "µM"}, {"measurement": "MIC", "setting": "Acinetobacter baumannii [1]", "value": 7, "unit": "µM"}, {"measurement": "MIC", "setting": "Candida albicans", "value": 422, "unit": "µM"}, {"measurement": "Activity", "setting": "Acinetobacter baumannii [2]", "value": "Dose-Dependent Effect"}, {"measurement": "Activity", "setting": "BEAS-2B", "value": "Non-Toxic"}, {"measurement": "inhibition (INH)", "setting": "Escherichia coli [3]", "value": 28.3, "unit": "%"}, {"measurement": "inhibition (INH)", "setting": "Escherichia coli [4]", "value": ">70.2", "unit": "%"}, {"measurement": "Activity", "setting": "Escherichia coli [5]", "value": 37.7, "unit": "%"}, {"measurement": "Activity", "setting": "Acinetobacter baumannii [6]", "value": 42.6, "unit": "%"}, {"measurement": "Activity", "setting": "Escherichia coli [7]", "value": "Dose-Dependent Effect"}, {"measurement": "Activity", "setting": "Acinetobacter baumannii [8]", "value": "Dose-Dependent Effect"}, {"measurement": "Activity", "setting": "Escherichia coli [9]", "value": "Active"}, {"measurement": "OD", "setting": "Acinetobacter baumannii [10]", "value": 0.178}, {"measurement": "OD", "setting": "Acinetobacter baumannii [11]", "value": 0.13}, {"measurement": "OD", "setting": "Escherichia coli [12]", "value": 0.12}, {"measurement": "Activity", "setting": "Escherichia coli [13]", "value": 64.4, "unit": "%"}, {"measurement": "OD", "setting": "Acinetobacter baumannii [14]", "value": 0.051}, {"measurement": "OD", "setting": "Acinetobacter baumannii [15]", "value": 0.128}, {"measurement": "OD", "setting": "Acinetobacter baumannii [16]", "value": 0.107}, {"measurement": "OD", "setting": "Acinetobacter baumannii [17]", "value": 0.109}, {"measurement": "OD", "setting": "Acinetobacter baumannii [18]", "value": 0.106}, {"measurement": "OD", "setting": "Acinetobacter baumannii [19]", "value": 0.117}, {"measurement": "OD", "setting": "Acinetobacter baumannii [20]", "value": 0.109}, {"measurement": "OD", "setting": "Acinetobacter baumannii [21]", "value": 0.051}, {"measurement": "OD", "setting": "Acinetobacter baumannii [22]", "value": 0.125}, {"measurement": "OD", "setting": "Escherichia coli [23]", "value": 0.052}, {"measurement": "OD", "setting": "Escherichia coli [24]", "value": 0.051}, {"measurement": "OD", "setting": "Escherichia coli [25]", "value": 0.107}, {"measurement": "Activity", "setting": "Acinetobacter baumannii [26]", "value": "Active"}, {"measurement": "Activity", "setting": "Escherichia coli [27]", "value": "Active"}, {"measurement": "Activity", "setting": "Escherichia coli [28]", "value": "Active"}, {"measurement": "Activity", "setting": "Acinetobacter baumannii [29]", "value": "Active"}]}
